Experimental data as given in paper PMC11480511 (Scientific Reports, 2024).
In brackets after ≈: the same amount, converted by molar mass. Like-named read-outs stand apart in the source and are kept apart here.

Columns and labels:
[1] = system: UACC-62; test: NCI single-dose growth inhibition screen; format: cell-based; settings: Homo sapiens; Melanoma UACC-62; single dose 10^−5 M
[2] = system: EKVX; test: NCI single-dose growth inhibition screen; format: cell-based; settings: Homo sapiens; Non-Small Cell Lung Cancer EKVX; single dose 10^−5 M
[3] = system: MDA-MB231; test: NCI single-dose growth inhibition screen; format: cell-based; settings: Homo sapiens, MDA-MB-231; Breast Cancer MDA-MB231; single dose 10^−5 M
[4] = system: RPMI-8226; test: NCI single-dose growth inhibition screen; format: cell-based; settings: Homo sapiens; Leukemia RPMI-8226; single dose 10^−5 M
[5] = system: T-47D; test: NCI single-dose growth inhibition screen; format: cell-based; settings: Homo sapiens, T47D; Breast Cancer T-47D; single dose 10^−5 M
[6] = system: SF-268; test: NCI single-dose growth inhibition screen; format: cell-based; settings: Homo sapiens; CNS Cancer SF-268; single dose 10^−5 M
[7] = system: SN12C; test: NCI single-dose growth inhibition screen; format: cell-based; settings: Homo sapiens; Renal Cancer SN12C; single dose 10^−5 M
[8] = system: MOLT-4; test: NCI single-dose growth inhibition screen; format: cell-based; settings: Homo sapiens; Leukemia MOLT-4; single dose 10^−5 M
[9] = system: MALME-3 M; test: NCI single-dose growth inhibition screen; format: cell-based; settings: Homo sapiens; Melanoma MALME-3 M; single dose 10^−5 M
[10] = system: ACHN; test: NCI single-dose growth inhibition screen; format: cell-based; settings: Homo sapiens; Renal Cancer ACHN; single dose 10^−5 M
[11] = system: 786-0; test: NCI single-dose growth inhibition screen; format: cell-based; settings: Homo sapiens; Renal Cancer 786-0; single dose 10^−5 M
[12] = system: CAKI-1; test: NCI single-dose growth inhibition screen; format: cell-based; settings: Homo sapiens; Renal Cancer CAKI-1; single dose 10^−5 M
[13] = system: A498; test: NCI single-dose growth inhibition screen; format: cell-based, human; settings: Homo sapiens, A498, Renal Cancer A498; single dose 10^−5 M
[14] = system: PC-3; test: NCI single-dose growth inhibition screen; format: cell-based; settings: Homo sapiens; Prostate Cancer PC-3; single dose 10^−5 M
[15] = system: BT-549; test: NCI single-dose growth inhibition screen; format: cell-based; settings: Homo sapiens; Breast Cancer BT-549; single dose 10^−5 M
[16] = system: P. aeruginosa ATCC 27,853; test: Antibacterial screening, agar cup diffusion method; format: cell-based; settings: Pseudomonas aeruginosa, ATCC27; Gram –ve strain; read-out: Minimum inhibitory concentrations (MIC, µM) P. aeruginosa ATCC 27,853
Method: Anti-bacterial activity of the recently synthesized compounds 3a-k was evaluated at AUMC (Assiut University Mycological Centre), Assiut, Egypt. Assays were done against Gram-negative strains of K. pneumoniae (ATCC 100310, E. coli (ATCC 25922), Pseudomonas aeruginosa (ATCC 27853) and the Gram-positive S. aureus (ATCC 6538) strain utilizing standard agar cup diffusion method. The isolates from the four bacterial species examined were kept in TSB (Trypticase Soya Broth, Becton and Dickinson) with 10% glycerol at -70 °C and then subcultured on TSA (Trypticase Soya Agar, Becton and Dickinson) and TSB for 24 h at 37 °C former to inoculation. Bacterial isolates were then plated on sterile petri plates with 1 × 10^8 CFU/mL (0.5 McFarland turbidity) and 20 mL of Mueller Hinton Agar media (Oxoid) was then loaded. To ensure that the microorganisms were evenly dispersed, the plates were gently rotated before being left to harden on a level surface. Four equally spaced spherical-shaped wells (10 mm diameter) were painstakingly drilled using a sterilized cork bore after media solidification. All tested compounds under test underwent two-fold serial dilutions in a sequential manner. Three replications of 100 µL of each concentration were added to a well using a micropipette. Plates were then incubated for 24-hour at 37 °C. The average of the inhibition zones was then calculated. To determine the MICs, the natural logarithm of each diluted test substance’s concentration was plotted against the average area of the related inhibition zone. Following that, a regression line was created and the intercept on the ‘ln concentration” axis was determined, and the antilogarithm was calculated to indicate the MIC value[34],[63].

[17] = system: HCT-116; test: NCI single-dose growth inhibition screen; format: cell-based; settings: Homo sapiens; Colon Cancer HCT-116; single dose 10^−5 M
[18] = system: NCI-H23; test: NCI single-dose growth inhibition screen; format: cell-based; settings: Homo sapiens; Non-Small Cell Lung Cancer NCI-H23; single dose 10^−5 M
[19] = system: LOX IMVI; test: NCI single-dose growth inhibition screen; format: cell-based, human; settings: Homo sapiens, LOX IMVI, Melanoma LOX IMVI; single dose 10^−5 M
[20] = system: SF-539; test: NCI single-dose growth inhibition screen; format: cell-based; settings: Homo sapiens; CNS Cancer SF-539; single dose 10^−5 M
[21] = system: SNB-19; test: NCI single-dose growth inhibition screen; format: cell-based; settings: Homo sapiens; CNS Cancer SNB-19; single dose 10^−5 M
[22] = system: K. pneumoniae ATCC 10,031; test: Antibacterial screening, agar cup diffusion method; format: cell-based; settings: read-out: Minimum inhibitory concentrations (MIC, µM) K. pneumoniae ATCC 10,031
[23] = system: CCRF-CEM; test: NCI single-dose growth inhibition screen; format: cell-based; settings: Homo sapiens; Leukemia CCRF-CEM; single dose 10^−5 M
[24] = system: SNB-75; test: NCI single-dose growth inhibition screen; format: cell-based, human; settings: Homo sapiens, SNB-75, CNS Cancer SNB-75; single dose 10^−5 M
[25] = system: M14; test: NCI single-dose growth inhibition screen; format: cell-based; settings: Homo sapiens; Melanoma M14; single dose 10^−5 M
Method: Following the guidelines established by the drug evaluation department of the National Cancer Institute (NCI), USA, all target compounds 3a–l were examined against 60 cancer cell lines at a single concentration of 10 µM.
The anti-cancer potential of the tested compounds was evaluated at the National cancer institute (NCI), USA, against 9 panels of 60 various cell lines derived from nine human tumours available usually at NCI library. The procedures for the screening were described in details in NCI website (dttp://www.dtp.nci.nih.gov.) and were done according to NCI protocols[60] . The anticancer screening was carried out at single dose of 10^−5 M, NCI, Bethesda, USA. The results obtained as growth inhibition (%).

[26] = system: HS 578T; test: NCI single-dose growth inhibition screen; format: cell-based; settings: Homo sapiens; Breast Cancer HS 578T; single dose 10^−5 M
[27] = system: MCF7; test: NCI single-dose growth inhibition screen; format: cell-based, human; settings: Homo sapiens, MCF7, Breast Cancer MCF7; single dose 10^−5 M
[28] = system: TK-10; test: NCI single-dose growth inhibition screen; format: cell-based; settings: Homo sapiens; Renal Cancer TK-10; single dose 10^−5 M
[29] = system: OVCAR-8; test: NCI single-dose growth inhibition screen; format: cell-based; settings: Homo sapiens; Ovarian Cancer OVCAR-8; single dose 10^−5 M
[30] = system: NCI-H460; test: NCI single-dose growth inhibition screen; format: cell-based; settings: Homo sapiens; Non-Small Cell Lung Cancer NCI-H460; single dose 10^−5 M
[31] = system: SR; test: NCI single-dose growth inhibition screen; format: cell-based; settings: Homo sapiens; Leukemia SR; single dose 10^−5 M
[32] = system: HOP-92; test: NCI single-dose growth inhibition screen; format: cell-based; settings: Homo sapiens; Non-Small Cell Lung Cancer HOP-92; single dose 10^−5 M
[33] = Klebsiella pneumoniae, ATCC10, Gram –ve strain

Row | Compound | inhibition at 10 µM [1] [%] | inhibition at 10 µM [2] [%] | inhibition at 10 µM [3] [%] | inhibition at 10 µM [4] [%] | inhibition at 10 µM [5] [%] | inhibition at 10 µM [6] [%] | inhibition at 10 µM [7] [%] | inhibition at 10 µM [8] [%] | inhibition at 10 µM [9] [%] | inhibition at 10 µM [10] [%] | inhibition at 10 µM [11] [%] | inhibition at 10 µM [12] [%] | melting point [°C] | inhibition at 10 µM [13] [%] | inhibition at 10 µM [14] [%] | inhibition at 10 µM [15] [%] | MIC [16] [µM] | inhibition at 10 µM [17] [%] | inhibition at 10 µM [18] [%] | inhibition at 10 µM [19] [%] | further results
1 | COc1cc(/C=C2\SC(=O)N(CCCC(=O)N3CCN(c4cc5c(cc4F)c(=O)c(C(=O)O)cn5C4CC4)CC3)C2=O)cc(OC)c1OC [3 g] | 3.7 | < 0 | < 0 | < 0 | < 0 | 4.4 | 0.6 | < 0 | < 0 | < 0 | < 0 | 2.2 | 252 | 2.3 | < 0 | < 0 | > 20 | < 0 | 2.6 | 1.8 | inhibition at 10 µM [20]: 0.5%; inhibition at 10 µM [21]: < 0%; MIC ([22]; Gram –ve strain): 0.25 µM (≈ 0.174 µg/mL); MIC [22, 33]: 0.13 to 0.8 µM (≈ 0.0903 to 0.556 µg/mL); inhibition at 10 µM [23]: < 0%; inhibition at 10 µM [24]: 5.9%; inhibition at 10 µM [25]: 0.5%; inhibition at 10 µM [26]: 3.2%; inhibition at 10 µM [27]: 3.6%; inhibition at 10 µM [28]: < 0%; inhibition at 10 µM [29]: 1.9%; inhibition at 10 µM [30]: < 0%; inhibition at 10 µM [31]: 5.4%; inhibition at 10 µM [32]: < 0%
2 | COc1ccc(/C=C2\SC(=O)N(CCCC(=O)N3CCN(c4cc5c(cc4F)c(=O)c(C(=O)O)cn5C4CC4)CC3)C2=O)cc1OC [3f] | 1.4 | 10.6 | 0.1 | < 0 | 0.9 | < 0 | 0.8 | 7.2 | 5.9 | < 0 | 2.4 | 1.7 | 241 | 15.5 | < 0 | 3.4 | > 20 | < 0 | < 0 | 2.4 | inhibition at 10 µM [20]: 4.4%; inhibition at 10 µM [21]: 0.9%; MIC [22, 33]: > 20 µM; inhibition at 10 µM [23]: < 0%; inhibition at 10 µM [24]: 4.9%; inhibition at 10 µM [25]: < 0%; inhibition at 10 µM [26]: 1.2%; inhibition at 10 µM [27]: 3.9%; inhibition at 10 µM [28]: 8.7%; inhibition at 10 µM [29]: 2.9%; inhibition at 10 µM [30]: < 0%; inhibition at 10 µM [31]: 19.5%; inhibition at 10 µM [32]: 0.8%
3 | O=C(O)c1cn(C2CC2)c2cc(N3CCN(C(=O)CCCN4C(=O)S/C(=C\c5ccc(Cl)cc5)C4=O)CC3)c(F)cc2c1=O [3 h] | 6.2 | 2.1 | 13.7 | < 0 | 2 | 2.3 | 0.4 | < 0 | 10.9 | 0.7 | 11.3 | 4.4 | 273 | 7.7 | < 0 | 3.8 | > 20 | 1.8 | 5.3 | 38.2 | inhibition at 10 µM [20]: 1.2%; inhibition at 10 µM [21]: 0%; inhibition at 10 µM [23]: < 0%; inhibition at 10 µM [24]: 15.5%; inhibition at 10 µM [25]: 0.7%; inhibition at 10 µM [26]: < 0%; inhibition at 10 µM [27]: < 0%; inhibition at 10 µM [28]: 1.1%; inhibition at 10 µM [29]: 5.3%; inhibition at 10 µM [30]: 0%; inhibition at 10 µM [31]: 10.7%; inhibition at 10 µM [32]: 9.7%
